The values below come from article PMC8591608, “DNDI-6148: A Novel Benzoxaborole Preclinical Candidate for the Treatment of Visceral Leishmaniasis” (Journal of Medicinal Chemistry, 2021).

For data set [1], the system named is L. infantum. Kind of data set: Intramacrophage L. infantum assay. To be noted: Leishmania infantum; Table 2; geometric mean of at least three independent assays; read-out: intramacrophage L. infantum EC50. In kind it is cell-based. As for the experimental part: (§1) L. infantum (MHOM/MA/67/ITMAP263) and L. donovani (MHOM/ET/67/L82) were maintained in the golden (Syrian) hamster (Mesocricetus auratus). Ex vivo amastigotes were collected from the spleen of an infected donor hamster using two centrifugation purification steps: 230g for 10 min, keeping the supernatant layer, and 4100g for 30 min, keeping the pellet. The spleen parasite burden was assessed using the Stauber technique.[25] For in vitro assays, the inoculum was prepared in RPMI-1640 medium, supplemented with 200 mM L-glutamine, 16.5 mM NaHCO3, and 5% inactivated fetal calf serum. For the in vivo model, an infection inoculum containing 2 × 10^7 amastigotes/100 μL was prepared in phosphate-buffered saline (PBS).
(§2) The assay was performed in sterile 96-well microtiter plates, each well containing 10 μL of the compound dilution and 190 μL of the PMM/amastigote inoculum (3 × 10^4 cells/4.5 × 10^5 parasites per well). Parasite multiplication was compared to untreated infected controls (100% growth) and uninfected controls (0% growth). After five-day incubation, total parasite burdens were microscopically assessed after staining the cells with a 10% Giemsa solution. The results were expressed as a percentage reduction in parasite burden compared to untreated control wells. EC50 values were determined using an extended dose range (2-fold compound dilutions, 8-point concentration curve). Miltefosine was used as the reference drug.[26] For selected compounds, this assay format was also run using the L. donovani inoculum.

The next data set concerns L. donovani. Kind of data set: Intramacrophage L. donovani assay. In kind it is cell-based. To be noted: Leishmania donovani; Table 2; geometric mean of at least three independent assays. The method, then: as §1, §2
A short description of another data set: PMM cytotoxicity assay. To be noted: mouse, primary peritoneal mouse macrophages (PMM); for EC50 at 3 days: Table 2, geometric mean of at least three independent assays. The format is cell-based. The method, then:
(§3) Primary peritoneal mouse macrophages (PMM) were collected two days after peritoneal stimulation with a 2% potato starch suspension. MRC5SV2 cells (diploid human embryonic lung fibroblasts) were cultured in minimal essential medium (MEM) containing Earle’s salts, supplemented with L-glutamine, NaHCO3, and 5% inactivated fetal calf serum. All cultures and assays were conducted at 37 °C under an atmosphere of 5% CO2.
(§4) Assays were performed in sterile 96-well microtiter plates, each well containing 10 μL of the compound dilution and 190 μL of MRC5SV2 or PMM inoculum (3 × 10^4 cells/mL). Cell growth was compared to untreated controls (100% growth) and assay-media controls (0% growth). After three-day incubation, cell viability was assessed fluorometrically by adding resazurin (50 μL/well of a stock solution in phosphate buffer (50 μg/mL)), incubating for 4 h and measuring fluorescence (λex 550 nm, λem 590 nm). The results were expressed as a percentage reduction in cell growth compared to untreated control wells. […] Tamoxifen was included as the reference drug.

The test system of data set [2] is wild-type L. donovani promastigotes. Nature of the data set: Drug sensitivity, wild-type L. donovani promastigotes. The format is cell-based. The settings on record: Leishmania donovani. The method, then:
(§5) The clonal L. donovani cell line LdBOB (derived from MHOM/SD/62/1S-CL2D) was grown as promastigotes at 28 °C, as described previously. Bloodstream form T. brucei MiTat 1.2 clone 221a and its derived subline, 2T1, were cultured at 37 °C in the presence of 5% CO2 in HMI9-T medium, as described previously. T. brucei cell lines overexpressing CPSF3 and overexpressing a mutated version of CPSF3 (Asn232His) were generated as part of a previous study and cultured as described.[19]
(§6) Drug sensitivity assays with wild-type and transgenic T. brucei and L. donovani cell lines were carried out as previously described.[31],[32]

The test system of data set [3] is CPSF3-overexpressing L. donovani promastigotes. Nature of the data set: Drug sensitivity, CPSF3-overexpressing L. donovani promastigotes. The settings on record: Leishmania donovani. The format is cell-based. The method, then:
as §5
(§7) L. donovaniCPSF3 gene (LdBPK_343210.1) was custom synthesized by GeneArt and ligated into the pIR1SAT vector via BglII restriction sites. Using the Q5 mutagenesis kit (NEB) and the pIR1SAT-LdCPSF3^WT construct as a template, mutations encoding A655C and Asn219His change to CPSF3^WT were introduced. Mutations were introduced using the specific primers 5′-GAGTACACGGCATCCGC-3′ and 5′-[…]-3′ and as per manufacturers’ instructions. Wild-type and mutated pIR1SAT constructs were digested with SwaI and transfected into L. donovani promastigotes, as previously described. Resistant clones were selected with nourseothricin (100 μg/mL), and two clones per transfection were selected for further study.
as §6

Data set [4] deals with CPSF3 (Asn219His)-overexpressing L. donovani promastigotes. Kind of data set: Drug sensitivity, CPSF3 (Asn219His)-overexpressing L. donovani promastigotes. In kind it is cell-based. The settings on record: for EC50: Leishmania donovani. As for the experimental part: as §5, §7, §6
For the next data set, the system named is Trypanosoma brucei. On the set-up: method as in PMID 21738803. To be noted: in vitro; read-out: EC50 against Trypanosoma brucei; cited from earlier work.
The nature of the next data set: MRC5 cytotoxicity assay. The format is cell-based. To be noted: human, MRC5SV2 cells (human embryonic lung fibroblasts); Table 4; geometric mean of at least two independent tests. As for the experimental part:
as §3, §4

Data set [5] is described as follows: Liver microsome stability, human. In kind it is in vitro ADME. The settings on record: human liver microsomes, pH 7.4, Table 4, read-out: HLM Clint. As for the experimental part: Tests were performed by WuXi AppTec, China. Test compounds (at 1 μM) or positive controls (testosterone, propafenone, and diclofenac) were incubated at 37 °C with liver microsomes from Balb/c mouse, golden (Syrian) hamster, Sprague-Dawley rat, Beagle dog, or human in the presence of a NADPH regenerating system and phosphate buffer (100 mM, pH 7.4) at 0.4 or 0.8 mg/mL microsomal protein. The samples were removed at time intervals from 0 to 60, 90, or 120 min and immediately mixed with cold methanol supplemented or not with acid (3% formic acid) and centrifuged prior to analysis by LC-MS/MS using tolbutamide or propranolol as internal standards.
(In general: Liver microsomes are vesicles of endoplasmic reticulum, rich in cytochrome P450 enzymes.)

The test system of data set [6] is L. infantum. Kind of data set: L. infantum hamster model of VL. The format is in vivo. The method, then:
as §1
Female golden hamsters for the in vivo model of visceral leishmaniasis were purchased from Janvier, France (body weight 80–100 g). This study using laboratory rodents was carried out in strict accordance with all mandatory guidelines (EU directives, including the Revised Directive 2010/63/EU on the protection of Animals used for Scientific Purposes that came into force on 01/01/2013, and the declaration of Helsinki in its latest version) and was approved by the ethical committee of the University of Antwerp, Belgium (UA-ECD 2011-74). Female golden hamsters for the pharmacokinetic study were purchased from Vital River, Beijing, China. This study was conducted following institutional review and in accordance with institutional and national guidelines at WuXi AppTec (the Institutional Animal Care and Use Committee (IACUC)). Balb/c mice for the in vivo model of visceral leishmaniasis (LSHTM) were purchased from Charles River, U.K., and related studies were conducted under license PPL 70/8427 from the U.K. Home Office.
Female golden hamsters were randomly allocated to experimental groups of six animals each, based on body weight. At the start of the experiment (Day 0), each animal was infected with L. infantum or L. donovani inoculum, delivered by intracardial injection. Six hamsters were assigned to the vehicle-treated, infected control group. Six hamsters were assigned per group (1 group/compound) for the evaluation of compound and miltefosine. […] At Day 35 (10 days after the final oral dose), all animals were euthanized and autopsies were conducted. The study evaluated the following parameters. • 1. Adverse effects: all animals were observed daily for the occurrence/presence of adverse effects. • 2. Body weight: all animals were weighed twice per week to monitor general health. • 3. Parasite burden: amastigote burdens in each target organ (liver, spleen, and bone marrow) were determined at Day 35. The organs of individual animals were weighed (except for bone marrow). Impression smears were stained with Giemsa for microscopic examination of the total amastigote burden, defined as the mean number of amastigotes per cell multiplied by the number of cells counted (minimum 500 nuclei); the results were expressed as a percentage reduction in amastigote burden compared to vehicle-treated, infected control animals.

A value given as a limit tells only on which side of the number the result lay.

In the case of `CC1(C)OB(O)c2cc(NC(=O)c3ccc(F)cc3C(F)(F)F)ccc21` [Compound 1, acoziborole, reference compound], the EC50 (commonly the concentration needed to bring the measured effect to its halfway point) is above 64000 nM with L. infantum [1]; 59000 nM with L. donovani; 2500 ± 100 nM in [2]; 2800 ± 100 nM in data set [3]; 11700 ± 400 nM in data set [4]; 795 nM with Trypanosoma brucei. The molecule also gave an EC50 at 3 days in the data set “PMM cytotoxicity assay” above 64000 nM. Further, in “PMM cytotoxicity assay” (supplement csv), the CC50 – broadly, the concentration giving 50% cytotoxicity – at 3 days is above 64000 nM. Also, the “fold reduction in susceptibility” value in data set [4] (promastigotes overexpressing mutated CPSF3) amounted to 5 fold.
Turning to `O=C(Nc1ccc2c(c1)B(O)OC2)c1ccc(F)cc1C(F)(F)F` [Compound 3], the EC50 worked out at 2700 nM in the data set on L. infantum [1]; 1200 nM in the data set with L. donovani; 1200 ± 20 nM in data set [2]; 1400 ± 30 nM in data set [3]; 4400 ± 200 nM in data set [4]. In addition, the EC50 at 3 days in “PMM cytotoxicity assay” was above 64000 nM. For the same molecule, the CC50 at 3 days in “PMM cytotoxicity assay” (Table 4, geometric mean of at least two independent tests) is above 64000 nM; in the data set “MRC5 cytotoxicity assay”, above 64000 nM. Further, the microsomal CLint at 2 h, 1 µM in data set [5] came to 0.8 µL/min/mg. Further, the “reduction in parasite burden, bone marrow” value in the data set on L. infantum [6] (25 mg/kg QD for 5 days) stood at 81.6%; with L. infantum [6] (50 mg/kg QD for 5 days), 91.2%; in the data set with L. infantum [6] (100 mg/kg QD for 5 days), 88.3%. Also, the “reduction in parasite burden, spleen” value with L. infantum [6] (25 mg/kg QD for 5 days) is recorded as 81.8%; in the data set on L. infantum [6] (50 mg/kg QD for 5 days), 95.0%; in the data set with L. infantum [6] (100 mg/kg QD for 5 days), 96.0%. Also, the “reduction in parasite burden, liver” value with L. infantum [6] (25 mg/kg QD for 5 days, vs vehicle-treated infected controls) is listed as 87.8%; with L. infantum [6] (50 mg/kg QD for 5 days), 97.4%; in the data set with L. infantum [6] (100 mg/kg QD for 5 days), 98.6%.
